# Entries after “also recorded” stand apart in the source; their conditions may differ. Like-named read-outs stand apart in the source and are kept apart here.
# Legend:
# [1] = target: SARS-CoV-2 main protease (M^pro) (Severe acute respiratory syndrome coronavirus 2, UniProt P0DTD1); assay: Protein thermal shift stability assay (SYPRO Orange); assay type: binding
# [2] = tested on: HOVPro-Gii.4; assay: Thermal shift, HOVPro-Gii.4; assay type: binding
# [3] = Metabolic stability in mouse liver microsomes; assay type: in vitro ADME; conditions: mouse, liver microsomes; for half-life at 2 μM: Table 4, read-out: MLM t1/2
# Protocol: (§1) The samples were collected at specific time-points 0, 30, and 60 min in duplicate. The reactions were terminated by adding an equivalent volume of ice-cold methanol and vortexed. […] Three μL of the supernatant was analyzed by UHPLC-Q Exactive Orbitrap MS (Thermo Fisher Scientific, USA) equipped with 50 mm×4.6 mm column (XDB C-18, Agilent Technologies, USA). The column temperature was maintained at 40° C. The flow rate was at 0.3 mL/min with a 30% mobile phase (acetonitrile containing 0.1% formic acid). Q Exactive MS was operated in positive mode with electrospray ionization. Ultra-pure nitrogen was applied as the sheath (45 arbitrary unit), auxiliary (10 arbitrary unit), sweep (1.0 arbitrary unit) and the collision gas. […] MS data were acquired from 80 to 1,200 Da in profile mode.
# [4] = target: T1, HOVPro-Gi.1 (Norovirus, UniProt Q83883); assay: Thermal shift, HOVPro-Gi.1; assay type: binding
# T1 construct: HOVPro-Gi.1
# T1 sequence (Q83883 1101-1281): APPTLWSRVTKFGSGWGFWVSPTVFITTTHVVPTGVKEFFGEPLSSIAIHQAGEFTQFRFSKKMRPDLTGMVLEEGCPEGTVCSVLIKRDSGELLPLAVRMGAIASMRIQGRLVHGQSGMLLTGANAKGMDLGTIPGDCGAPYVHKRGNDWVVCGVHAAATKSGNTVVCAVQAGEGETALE
# [5] = target: T2, Human Cathepsin B (Homo sapiens, UniProt P07858); assay: Cathepsin B assay; assay type: biochemical
# T2 construct: purchased BPS Bioscience 79590
# Protocol: A kit from BPS Bioscience (#79590) was used with adjustments to the manufacturer's protocol as follows: The activated enzyme was diluted 250-fold just before use, and the reaction was run at RT in black 96 half-area plates in a total reaction volume of 50 uL containing 0.01% Tween-20. Instead of measuring endpoints at 60 min the increase in fluorescence (Ex 360 nm, Em 460 nm) per second (RFU/s) was obtained from linear progress curves over 10 min. Fractional activities were calculated from reactions with no inhibitors. E-64 was used as a positive control.
# [6] = Metabolic stability in human liver microsomes; assay type: in vitro ADME; conditions: human, liver microsomes; for half-life at 2 μM: Table 4, read-out: HLM t1/2
# Protocol: as §1
# [7] = target: SARS-COV-2 M^pro (authentic N- and C-termini) (Severe acute respiratory syndrome coronavirus 2, UniProt P0DTD1); assay: biochemical; assay type: biochemical
# [8] = Apparent solubility in PBS buffer; conditions: for solubility: PBS buffer with 2% DMSO, aqueous buffer, kinetic from dmso stock
# [9] = 293T relative cell viability; conditions: human, 293T cells
# [10] = target: SARS-COV-2 M^pro-His6 (Severe acute respiratory syndrome coronavirus 2, UniProt P0DTD1); assay: biochemical; assay type: biochemical
# [11] = target: T3, human thrombin (Homo sapiens, UniProt P00734); assay: Thrombin fluorescence assay; assay type: biochemical
# T3 construct: purchased Sigma-Aldrich MAK243
# [12] = Pharmacokinetics in mice; assay type: in vivo; conditions: 50 mg/kg intraperitoneal, plasma
# Protocol: The whole blood samples were span at 2,000 rcf for 5 min for the separation of plasma. […] The concentration of these compounds in plasma were quantified using a calibration curve.
# [13] = target: T4, matrix metallopeptidase 1 (MMP-1) (Homo sapiens, UniProt P03956); assay: MMP-1 assay; assay type: biochemical
# T4 construct: purchased Biovision K794-100
# T4 sequence (P03956 100-469): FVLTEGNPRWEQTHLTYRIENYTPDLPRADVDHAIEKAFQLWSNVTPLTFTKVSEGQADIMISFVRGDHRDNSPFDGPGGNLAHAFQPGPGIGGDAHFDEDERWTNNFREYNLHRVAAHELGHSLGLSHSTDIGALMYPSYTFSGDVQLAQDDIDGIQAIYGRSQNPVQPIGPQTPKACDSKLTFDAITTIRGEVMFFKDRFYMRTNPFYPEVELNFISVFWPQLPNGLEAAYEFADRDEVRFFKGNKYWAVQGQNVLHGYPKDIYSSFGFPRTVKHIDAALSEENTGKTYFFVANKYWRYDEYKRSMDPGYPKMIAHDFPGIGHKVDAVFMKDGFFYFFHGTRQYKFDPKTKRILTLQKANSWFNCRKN
# Protocol: A kit from Biovision (#K794-100) was used with adjustments to the manufacturer's protocol as follows: The enzyme was reconstituted according to protocol and then diluted 5-fold with assay buffer just before use. The unknown fluorogenic substrate was further diluted 10-fold with the provided assay buffer. The reaction was run at 37 C in black 96 half-area plates in a total reaction volume of 50 μL containing 0.01% Tween-20. The increase in fluorescence (Ex 490 nm, Em 520 nm) per second (RFU/s) was obtained from linear progress curves over 10 min. Fractional activities were calculated from reactions with no inhibitors. GM 6001 was used as a positive control.
# [14] = target: T5, renin (Homo sapiens, UniProt P00797); assay: Renin assay; assay type: biochemical
# T5 construct: purchased BPS Bioscience 80211
# T5 sequence (P00797 67-406): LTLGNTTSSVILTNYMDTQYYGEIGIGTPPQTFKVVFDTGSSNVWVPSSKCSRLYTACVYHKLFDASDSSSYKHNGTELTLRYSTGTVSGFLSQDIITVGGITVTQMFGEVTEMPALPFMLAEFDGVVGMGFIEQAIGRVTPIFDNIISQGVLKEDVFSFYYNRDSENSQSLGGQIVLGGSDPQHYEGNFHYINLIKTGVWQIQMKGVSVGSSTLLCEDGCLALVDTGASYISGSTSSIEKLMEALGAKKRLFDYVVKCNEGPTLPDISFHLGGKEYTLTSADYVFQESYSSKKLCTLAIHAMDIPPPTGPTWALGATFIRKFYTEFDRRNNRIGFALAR
# Protocol: A kit from BPS Bioscience (#80211) was used with adjustments to the manufacturer's protocol as follows: The reaction was run at RT in black 96 half-area plates in a total reaction volume of 50 uL containing 0.01% Tween-20. Instead of measuring endpoints at 30 min the increase in fluorescence (Ex 490 nm, Em 520 nm) per second (RFU/s) was obtained from linear progress curves over 10 min. Fractional activities were calculated from reactions with no inhibitors. Aliskiren was used as a positive control.
# [15] = tested on: HepG2 cells; assay: HepG2 cytotoxicity assay (XTT); conditions: Homo sapiens, HepG2, 24 h, read-out: HepG2 cell viability IC50
structure (smiles),measurement,setting,value
CCC[C@H](NC(=O)c1cccc2nc(-c3cncc4ccccc34)n([C@H]3C[C@H](C(=O)NC)C3)c12)c1ccc(OC(F)F)cc1 [CDD-1780],ΔTm of Mpro at 50 μM compound conc.,"[1]; 50 μM compound, […]",9.19 °C
same,ΔTm of HOVPro-Gii.4 at 50 μM compound conc.,[2],−1.23 °C
same,microsomal CLint at 2 μM,[3],39.5 µL/min/mg
same,half-life at 2 μM,[3],35.1 min
same,ΔTm of HOVPro-Gi.1 at 50 μM compound conc.,[4],−0.18 °C
same,"Human Cathepsin B, Fractional Remaining Activity",[5],0.95
same,microsomal CLint at 2 μM,[6],76.1 µL/min/mg
same,half-life at 2 μM,[6],18 min
same,Ki,"[7]; Table 3, column b (footnote not given), read-out: Kiapp (nM)^b",15.7 ± 1.6 nM
same,solubility,[8],41.8 µM
same,"cytotoxicity at 3 day, 10 μM",[9],6%
same,Ki,"[10]; Table 3, column a (footnote not given), read-out: Kiapp (nM)^a",13.7 ± 1.5 nM
same,Thrombin inhibition,[11]; fluorescence assay,None
CCCC(NC(=O)c1cccc2nc(-c3cncc4ccccc34)n([C@H]3C[C@H](C(=O)NC)C3)c12)c1ccc(C(F)(F)F)cc1 (stereo partly shown) [CDD-1732],ΔTm of Mpro at 50 μM compound conc.,"[1]; 50 μM compound, […], 50 µM",0.61 °C
same,ΔTm of HOVPro-Gii.4 at 50 μM compound conc.,[2]; 50 µM,−1.24 °C
same,ΔTm of HOVPro-Gi.1 at 50 μM compound conc.,[4]; 50 µM,−0.82 °C
same,Measured apparent solubility in PBS buffer (2% DMSO),[8],26.9 µM
same,Thrombin inhibition,[11]; fluorescence assay,None
CNCc1cc(-c2cccc3[nH]ncc23)cc(OC)c1OCC(=O)N(C)C [CDD-1777],ΔTm of Mpro at 50 μM compound conc.,"[1]; 50 μM compound, […]",1.00 °C
same,"Ki,app",[7],Inactive
same,M^pro Ki,[7],Inactive
same,solubility,[8],195 µM
same,"cytotoxicity at 3 day, 10 μM",[9],4%
same,M^pro-His Ki,[10],Inactive
CCCC(NC(=O)c1cccc2nc(-c3cncc4ccccc34)n([C@H]3C[C@H](C(=O)NC)C3)c12)c1ccc(C(F)(F)F)cc1 (stereo partly shown) [CDD-1733],AUC0-t,[12],7.80 ± 3.22 µM·h
same,CL/F,[12],7.73 ± 2.75 mg/(hr · μmol/L)/kg
same,Tmax,[12],60 min
same,ΔTm of Mpro at 50 μM compound conc.,"[1]; 50 μM compound, […], 50 µM",7.75 °C
same,MMP-1 inhibition (in words),[13],negative
same,ΔTm of HOVPro-Gii.4 at 50 μM compound conc.,[2]; 50 µM,−1.2 °C
same,ΔTm of HOVPro-Gi.1 at 50 μM compound conc.,[4]; 50 µM,−0.74 °C
same,"Human Cathepsin B, Fractional Remaining Activity",[5],0.91
same,cathepsin B inhibition (in words),[5],negative
same,Measured apparent solubility in PBS buffer (2% DMSO),[8],30.3 µM
same,renin inhibition (in words),[14],negative
same,Thrombin inhibition,[11]; fluorescence assay,None
same,thrombin inhibition (in words),[11]; fluorescence assay,No inhibition; also recorded: negative
"COc1cc(-c2cccc3[nH]ncc23)cc(C=O)c1OCC(=O)N1CCC(Oc2cccc(C(=O)N(C)C)c2)C1 (stereo not shown) [CDD-1714, 3-((1-(2-(2-formyl-4-(1H-indazol-4-yl)-6-methoxyphenoxy)acetyl)pyrrolidin-3-yl)oxy)-N,N-dimethylbenzamide]",stabilization of M^pro in thermal shift assay (in words),[1],stabilized; also recorded: concentration-dependent stabilization
same,ΔTm of Mpro at 50 μM compound conc.,[1],2.93 °C
same,ΔTm of HOVPro-Gii.4 at 50 μM compound conc.,[2],−0.41 °C
same,microsomal CLint at 2 μM,[3],130 µL/min/mg
same,half-life at 2 μM,[3],10.7 min
same,ΔTm of HOVPro-Gi.1 at 50 μM compound conc.,[4],−0.11 °C
same,"Human Cathepsin B, Fractional Remaining Activity",[5],0.92
same,microsomal CLint at 2 μM,[6],132 µL/min/mg
same,half-life at 2 μM,[6],10.5 min
same,Ki,"[7]; Morrison equation, read-out: apparent Ki against M^pro",24.4 nM
same,solubility,[8],54.4 µM
same,"cytotoxicity at 3 day, 10 μM",[9],21%
same,Ki,"[10]; 25 nM enzyme, 15 μM fluorescent peptide, Morrison equation, Inactive = less than 50% inhibition at 25 μM compound, read-out: M^pro-His Ki",20.2 ± 3 nM
same,Thrombin inhibition,[11],None
same,thrombin inhibition (in words),[11],No inhibition
CNC(=O)[C@H]1C[C@H](n2c(-c3cncc4ccccc34)nc3cccc(C(=O)NC(C)c4ccc5ccccc5c4)c32)C1 (stereo partly shown) [CDD-1819],CL/F,[12],7.26 ± 1.81 mg/(hr · μmol/L)/kg
same,MRT last,"[12]; mouse, ip, read-out: MRT0-t",78.6 ± 7.2 min
same,MRT inf,"[12]; mouse, ip, read-out: MRT0-∞",85.2 ± 9.6 min
same,Tmax,"[12]; mouse, ip, read-out: Tmax",19.8 ± 8.4 min
same,IC50,[15],> 100000 nM
same,MMP-1 inhibition (in words),[13],negative
same,cathepsin B inhibition (in words),[5],negative
same,renin inhibition (in words),[14],negative
same,thrombin inhibition (in words),[11]; fluorescence assay,negative
CNC(=O)CCCn1c(-c2cncc3ccccc23)nc2cccc(C(=O)N[C@@H](C)c3ccc4ccccc4c3)c21 [CDD-1845],AUC0-t,[12],14.87 ± 7.79 µM·h
same,AUC0-∞,[12],14.93 ± 7.85 µM·h
same,CL/F,[12],4.02 ± 1.98 mg/(hr · μmol/L)/kg
same,Cmax,[12],8.93 ± 4.55 µM
same,MRT0-t,[12],73.2 ± 1.8 min
same,MRT0-∞,[12],75 ± 1.2 min
same,T1/2,[12],68.4 ± 19.2 min
same,Tmax,[12],19.8 ± 8.4 min
same,MMP-1 inhibition (in words),[13],negative
same,cathepsin B inhibition (in words),[5],negative
same,renin inhibition (in words),[14],negative
same,thrombin inhibition (in words),[11],negative

# Reference: patent US20250276955A1, “CORONAVIRUS MAIN PROTEASE INHIBITORS AND METHODS USING SAME” (Baylor College of Medicine, priority 2021, published 2025)
